# According to patent publication US20260125382A1, “COMPOUNDS FOR INHIBITING OR DEGRADING CDK2 AND/OR CDK9 AND MEDICINAL USE THEREOF” (KOREA RESEARCH INSTITUTE OF CHEMICAL TECHNOLOGY, priority 2022, published 2026):
# Columns and labels:
# CDK9 = biological target: T1, CDK9 (Homo sapiens, UniProt P50750); experiment: CDK protein degradation activity (Western blotting), CDK9; format: cell-based; details: MDA-MB-231 cells, 16 hours, Western blot
# T1 construct: endogenous in cells; host or cells: MDA-MB-231
# Procedure, shortened: (§1)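 Degradation is judged from CDK2 and CDK9 band intensity relative to tubulin and DMSO-treated cells, after 16 h exposure of MDA-MB-231 cells to three compound concentrations (100 nM, 1 μM, 10 μM).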
# CDK2 = biological target: T2, CDK2 (Homo sapiens, UniProt P24941); experiment: CDK protein degradation activity (Western blotting), CDK2; format: cell-based; details: MDA-MB-231 cells, 16 hours, Western blot
# T2 construct: endogenous in cells; host or cells: MDA-MB-231
# Procedure, shortened: as §1
# T1 sequence (P50750 whole entry): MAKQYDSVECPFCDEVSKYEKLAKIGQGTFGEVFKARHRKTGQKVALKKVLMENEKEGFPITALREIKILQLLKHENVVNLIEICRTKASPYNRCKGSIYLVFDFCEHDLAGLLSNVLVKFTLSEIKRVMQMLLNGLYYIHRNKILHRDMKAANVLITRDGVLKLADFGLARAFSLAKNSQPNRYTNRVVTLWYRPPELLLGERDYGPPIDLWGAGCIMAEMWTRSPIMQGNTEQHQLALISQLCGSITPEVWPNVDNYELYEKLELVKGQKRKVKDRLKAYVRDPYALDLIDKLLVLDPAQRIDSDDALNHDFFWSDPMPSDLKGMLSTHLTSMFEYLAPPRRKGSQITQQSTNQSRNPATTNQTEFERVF
Compound,Enzyme degradation CDK9 (% remaining) @ 0.1 μM (CDK9),Enzyme degradation CDK9 (% remaining) @ 1 μM (CDK9),Enzyme degradation CDK9 (% remaining) @ 10 μM (CDK9),Enzyme degradation CDK2 (% remaining) @ 0.1 μM (CDK2),Enzyme degradation CDK2 (% remaining) @ 1 μM (CDK2),Enzyme degradation CDK2 (% remaining) @ 10 μM (CDK2)
"O=C1CC[C@H](N2C(=O)c3ccc(OCC(=O)N4CCC(CN5CCN(c6ccc(Nc7ncnc8c7ncn8C7CC(NC(=O)Cc8ccccc8)C7)cc6)CC5)CC4)cc3C2=O)C(=O)N1 (stereo partly drawn) [Compound 175, N-((1s,3s)-3-(6-((4-(4-((1-(2-((2-(2,6-dioxopiperidin-3-yl)-1,3-dioxoisoindolin-5-yl)oxy)acetyl)piperidin-4-yl)methyl)piperazin-1-yl)phenyl)amino)-9H-purin-9-yl)cyclobutyl)-2-phenylacetamide]",80%,30%,0%,100%,80%,30%
"O=C1CC[C@H](N2C(=O)c3cc(F)c(N4CCC(CN5CCN(c6ccc(Nc7ncnc8c7ncn8C7CC(NC(=O)c8cccc(C(F)(F)F)n8)C7)cc6)CC5)CC4)cc3C2=O)C(=O)N1 (stereo partly drawn) [Compound 415, N-((1s,3s)-3-(6-((4-(4-((1-(2-(2,6-dioxopiperidin-3-yl)-6-fluoro-1,3-dioxoisoindolin-5-yl)piperidin-4-yl)methyl)piperazin-1-yl)phenyl)amino)-9H-purin-9-yl)cyclobutyl)-6-(trifluoromethyl)picolinamide]",10/10/10%,10/10/10%,10/10/10%,20/20/20%,20/20/20%,20/20/20%
"Cc1cccc(C(=O)N[C@H]2C[C@@H](n3cnc4c(NC5CCN(C(=O)CC6CCN(C(=O)COc7cccc8c7C(=O)N([C@H]7CCC(=O)NC7=O)C8=O)CC6)CC5)ncnc43)C2)n1 [Compound 50, N-((1s,3s)-3-(6-((1-(2-(1-(2-((2-(2,6-dioxopiperidin-3-yl)-1,3-dioxoisoindolin-4-yl)oxy)acetyl)piperidin-4-yl)acetyl)piperidin-4-yl)amino)-9H-purin-9-yl)cyclobutyl)-6-methylpicolinamide]",90%,60%,20%,80%,40%,10%
"N-((1s,3s)-3-(6-((4-(4-(2-(1-(1-(2-(2,6-dioxopiperidin-3-yl)-1,3-dioxoisoindolin-5-yl)piperidin-4-carbonyl)piperidin-4-yl)ethyl)piperazin-1-yl)phenyl)amino)-9H-purin-9-yl)cyclobutyl)-2-phenylacetamide [Compound 404]",0/0/0%,0/0/0%,0/0/0%,50/50/50%,50/50/50%,50/50/50%
"Cc1cccc(C(=O)N[C@H]2C[C@@H](n3cnc4c(Nc5ccc(N6CCN(C7CC8(CCN(C(=O)C9CCN(c%10cc%11c(cc%10F)C(=O)N([C@H]%10CCC(=O)NC%10=O)C%11=O)CC9)CC8)C7)CC6)cc5)ncnc43)C2)n1 [Compound 465, N-((1s,3s)-3-(6-((4-(4-(7-(1-(2-(2,6-dioxopiperidin-3-yl)-6-fluoro-1,3-dioxoisoindolin-5-yl)piperidin-4-carbonyl)-7-azaspiro[3.5]nonan-2-yl)piperazin-1-yl)phenyl)amino)-9H-purin-9-yl)cyclobutyl)-6-methylpicolinamide]",0/0/0%,0/0/0%,0/0/0%,50/50/50%,50/50/50%,50/50/50%
"O=C1CCN(c2coc3cc(C(=O)N4CCC(CN5CCN(c6ccc(Nc7ncnc8c7ncn8[C@H]7C[C@@H](NC(=O)Cc8ccccc8)C7)cc6)CC5)CC4)ccc23)C(=O)N1 [Compound 187, N-((1s,3s)-3-(6-((4-(4-((1-(3-(2,4-dioxotetrahydropyrimidin-1(2H)-yl)benzofuran-6-carbonyl)piperidin-4-yl)methyl)piperazin-1-yl)phenyl)amino)-9H-purin-9-yl)cyclobutyl)-2-phenylacetamide]",10%,0%,0%,30%,10%,20%
"O=C1CC[C@H](N2C(=O)c3cccc(OCC(=O)N4CCC(OCCN5CCN(c6ccc(Nc7ncnc8c7ncn8C7CC(NC(=O)Cc8ccccc8)C7)cc6)CC5)CC4)c3C2=O)C(=O)N1 (stereo partly drawn) [Compound 246, N-((1s,3s)-3-(6-((4-(4-(2-((1-(2-((2-(2,6-dioxopiperidin-3-yl)-1,3-dioxoisoindolin-4-yl)oxy)acetyl)piperidin-4-yl)oxy)ethyl)piperazin-1-yl)phenyl)amino)-9H-purin-9-yl)cyclobutyl)-2-phenylacetamide]",80%,30%,0%,60%,40%,40%
"Cc1cccc(C(=O)N[C@H]2C[C@@H](n3cnc4c(NCCC5CCN(CC6CCN(C(=O)C7CCN(c8cc9c(cc8F)C(=O)N(C8CCC(=O)NC8=O)C9=O)CC7)CC6)CC5)ncnc43)C2)n1 (stereo partly drawn) [Compound 450, N-((1s,3s)-3-(6-((2-(1-((1-(1-(2-(2,6-dioxopiperidin-3-yl)-6-fluoro-1,3-dioxoisoindolin-5-yl)piperidin-4-carbonyl)piperidin-4-yl)methyl)piperidin-4-yl)ethyl)amino)-9H-purin-9-yl)cyclobutyl)-6-methylpicolinamide]",0/0/0%,0/0/0%,0/0/0%,50/50/50%,50/50/50%,50/50/50%
"Cc1cccc(C(=O)N[C@H]2C[C@@H](n3cnc4c(NCc5ccc(OCCCN6CCN(c7ccc8c(c7)C(=O)N(C7CCC(=O)NC7=O)C8=O)CC6)cc5)ncnc43)C2)n1 (stereo partly drawn) [Compound 116, N-((1s,3s)-3-(6-((4-(3-(4-(2-(2,6-dioxopiperidin-3-yl)-1,3-dioxoisoindolin-5-yl)piperazin-1-yl)propoxy)benzyl)amino)-9H-purin-9-yl)cyclobutyl)-6-methylpicolinamide]",10%,0%,0%,30%,40%,50%
